Series [1] concerns HT1080 fibrosarcoma cells. Put plainly: Chemoinvasion assay, type IV collagen-coated Transwell inserts (Boyden chamber). The class given is cell-based, human. The following applies: type IV collagen-coated filters; for inhibition of HT1080 cell invasion (chemoinvasion) / inhibition at 1 µM: 1 μM; for inhibition of HT1080 cell invasion (chemoinvasion): 48 h; for inhibition at 1 µM / inhibition at 10 µM: Homo sapiens, HT-1080, 48 h, read-out: inhibition of HT1080 cell invasion (chemoinvasion). The protocol:
Plates (24-well) (Falcon, Becton-Dickinson, USA) and 6.5 mm polycarbonate filters (8 μm pore size) of Transwell cell culture chamber inserts (Costar, Netherlands) were coated with 100 μl of type IV collagen purified from human placenta diluted at 200 μg ml^−1 in phosphate-buffered saline (PBS). Coats were left to air-dry overnight in a laminar flow hood under UV light. Uniformity of the coating was assessed by Coomassie blue staining. Before use, coated plates and inserts were washed twice with water and incubated for at least 1 h in serum-free DMEM at 37°C ([Maquoi et al, 1999]).
(§1) HT1080 cells exponentially growing in T-75 flasks (Nunc, Costar, Netherlands) were collected by trypsin–ethylenediaminetetraacetic acid treatment, washed with serum-containing medium and allowed to recover from trypsinisation for at least 30 min at 37°C. Cells were then washed twice in serum-free DMEM and diluted in the same medium supplemented with 0.1% bovine serum albumin (BSA, fraction V, Sigma, USA) to a cell density of 6 × 10^5 cells ml^−1.
(§2) The influence of coumarin derivatives (0.1, 1 and 10 μM) on HT1080 cell invasion and migration was assayed using Transwell cell culture inserts (Costar) and compared to the reference compound GI 129471 (1 μM), an MMP inhibitor ([Wheeler et al, 1998]).
(§3) For chemoinvasion assays, type IV collagen-coated membranes (see above) were used, whereas uncoated membranes were employed for chemotaxis assays. Lower wells of chambers were filled with DMEM supplemented with 20% FCS and 1% BSA (fraction V, ICN) as chemoattractant, in the presence or absence of coumarin derivative (final concentration 0.1, 1 and 10 μM) or GI 129471 (final concentration 1 μM). Cells (6 × 10^4) suspended in DMEM supplemented with 0.1% BSA (fraction V, ICN) were seeded in the upper wells. Chambers were subsequently incubated for 48 and 4 h for chemoinvasion and chemotaxis assays, respectively, in a humid atmosphere at 37°C (in order to maintain a chemotactic gradient, media from both lower and upper wells were renewed after 24 h). After incubation, filters were removed from the chambers, fixed in 4% paraformaldehyde for 15 min (4°C), permeabilised for 10 min in methanol (−20°C) and stained with Giemsa (4%) for 15 min. The upper surface of the filters was scrapped with a cotton swab and cells having reached the lower surface of the filters were visually counted using a light microscope (Vanox AH3, Olympus, Hamburg, Germany) at 20-fold magnification. Each assay was performed in triplicate. Results were expressed as percentages (±s.d.) of the migration of control cells.

The subject of series [2] is HT1080 fibrosarcoma cells. In words: Chemotaxis assay, uncoated Transwell inserts. The following applies: 1 μM, 4 h, uncoated filters. The class given is cell-based, human. The protocol: as §1, §2, §3
A further series deals with α-CT. The following applies: cited from earlier work; for ki/KI or kobs/[I], α-CT: pH 7.5, 25°C.
The next series has as its target T1, HLE (Homo sapiens, UniProt P08246).
T1 construct: purchased Elastase Products Co
T1 sequence (P08246 30-267): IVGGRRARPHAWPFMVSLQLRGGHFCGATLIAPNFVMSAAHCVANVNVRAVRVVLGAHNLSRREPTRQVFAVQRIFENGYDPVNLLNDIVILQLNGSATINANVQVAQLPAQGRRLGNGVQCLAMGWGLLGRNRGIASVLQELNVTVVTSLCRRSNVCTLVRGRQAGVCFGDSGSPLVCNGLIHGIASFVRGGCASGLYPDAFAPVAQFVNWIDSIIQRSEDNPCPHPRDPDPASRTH
The following applies: cited from earlier work; for ki/KI or kobs/[I], HLE: pH 8.0, 25°C.

In another series the target is T2, LMW-uPA (Homo sapiens, UniProt P00749).
T2 construct: Bovine α-CT and LMW-uPA (MW=33 000 Da) were purchased from Sigma; purchased Sigma
In words: Inactivation of LMW-uPA (preincubation method). The class given is biochemical. How it is done: (§4) Bovine α-CT and LMW-uPA (MW=33 000 Da) were purchased from Sigma, HMW-uPA (MW=54 000 Da) from Choay, trypsin (TRY) and THR from Boehringer-Indelheim (Germany), and MMP-2 and MMP-9 from Calbiochem. Human leucocyte elastase and PM were from Elastase Products Co. and Biogenic, respectively. Except for THR, HMW-uPA, MMP-2 and MMP-9, enzyme concentrations were determined by active-site titrations using the appropriate titrant ([Bender et al, 1966]; [Chase and Shaw, 1970]; [Powers and Gupton, 1977]). […]
(§5) The kinetic parameters for the inhibition were determined either by the preincubation method for LMW-uPA and PM (small aliquots of the reaction mixture were withdrawn at intervals of time and the remaining activity determined), or by the progress curve method (HLE) when the inhibition was too fast to be measured accurately using the preincubation method. […]
(§6) At low inhibitor concentrations, the ratio ki/KI was obtained as kobs/[I]0. […] In the progress curve method, the substrate competes with the inhibitor and the kinetic parameters are determined as previously described ([Doucet et al, 1999]). […]

The next series concerns the target T3, Plasmin (Homo sapiens, UniProt P00747).
T3 construct: No; X′; α-CT; HLE; LMW-uPA; Plasmin; purchased Biogenic
Put plainly: Inactivation of plasmin (preincubation method). The class given is biochemical. The following applies: pH 7.5, read-out: ki/KI or kobs/[I], Plasmin. How it is done: as §4, §5, §6

Each structure is given as a SMILES string. Read-outs that look alike come from different tables or passages of the source. A value given as a limit tells only on which side of the number the result lay.

T3 sequence (P00747 581-810 limits assumed, species assumed): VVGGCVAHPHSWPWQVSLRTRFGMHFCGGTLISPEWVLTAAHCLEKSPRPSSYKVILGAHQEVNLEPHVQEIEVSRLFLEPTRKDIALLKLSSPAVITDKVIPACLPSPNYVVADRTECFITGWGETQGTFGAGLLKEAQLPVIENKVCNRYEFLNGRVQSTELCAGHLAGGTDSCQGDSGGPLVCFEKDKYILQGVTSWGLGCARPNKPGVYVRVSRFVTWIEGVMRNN
T3 sequence (P00747 97-580 partner limits assumed, species assumed): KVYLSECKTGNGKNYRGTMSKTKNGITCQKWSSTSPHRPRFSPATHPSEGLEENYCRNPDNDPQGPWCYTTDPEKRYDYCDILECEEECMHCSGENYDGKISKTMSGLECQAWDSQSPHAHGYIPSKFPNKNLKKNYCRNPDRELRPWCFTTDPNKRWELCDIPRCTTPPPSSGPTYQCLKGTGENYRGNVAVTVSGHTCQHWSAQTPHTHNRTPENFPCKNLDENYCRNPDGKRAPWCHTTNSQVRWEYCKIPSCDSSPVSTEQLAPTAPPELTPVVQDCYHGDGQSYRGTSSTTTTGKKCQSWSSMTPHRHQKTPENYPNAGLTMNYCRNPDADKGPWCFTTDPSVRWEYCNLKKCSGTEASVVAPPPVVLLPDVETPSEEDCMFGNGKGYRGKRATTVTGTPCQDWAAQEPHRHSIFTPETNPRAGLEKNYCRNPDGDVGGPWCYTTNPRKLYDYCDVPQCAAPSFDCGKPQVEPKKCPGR

As for `CNC(=O)[C@H](Cc1ccccc1)NC(=O)[C@H](CC(C)C)[C@H](CSc1ccccc1)C(=O)NO` [GI 129471, reference compound], the “inhibition of HT1080 cell invasion (chemoinvasion)” value in series [1] is listed as 60%. The chemotaxis inhibition is 30% in series [2] and 20–30% in series [2] (listed as reference compound).

Turning to `O=C(Oc1cccc(Cl)c1)c1cc2ccccc2oc1=O` [compound 1], in series [1], the inhibition (usually how much of the control response was suppressed) at 1 µM is 50% and the inhibition at 10 µM amounted to 65%. Besides, the “ki/KI or kobs/[I], α-CT” value at α-CT (ref Pochet et al (2000)) is recorded as <500^a M^−1 s^−1. Moreover, on HLE (ref Pochet et al (2000)), the “ki/KI or kobs/[I], HLE” value is 610^a M^−1 s^−1.

As to `Cc1ccc2oc(=O)c(C(=O)Oc3cccc(Cl)c3)cc2c1` [compound 2], in series [1], the inhibition at 1 µM came to 50% and the inhibition at 10 µM turned out to be 70%. The “ki/KI or kobs/[I], α-CT” value at α-CT (ref Pochet et al (2000)) is reported as 9400^a M^−1 s^−1. At HLE (ref Pochet et al (2000)), the “ki/KI or kobs/[I], HLE” value is recorded as 1100^a M^−1 s^−1.

As to `O=C(Oc1cccc(Cl)c1)c1cc2cc(CCl)ccc2oc1=O` [compound 3, 3-chlorophenyl 6-chloromethyl-2-oxo-2H-1-benzopyran-3-carboxylate], in series [1], the inhibition at 10 µM was 30%. In addition, the kinact/KI turned out to be 336 M⁻¹ s⁻¹ on LMW-uPA (pH 7.5, read-out: ki/KI or kobs/[I], LMW-uPA) and 600 M⁻¹ s⁻¹ on Plasmin. Moreover, the “reactivation of inhibited LMW-uPA” value at LMW-uPA (spontaneously after 18 h incubation or after treatment with NH2OH (pH 7.5, 25°C)) is “No reactivation”. At α-CT (ref Pochet et al (1996)), the “ki/KI or kobs/[I], α-CT” value is reported as 762700^b M^−1 s^−1. Also, in the series with α-CT (ref Pochet et al, 1996, 2000), the “mode of inhibition of α-CT” value was “suicide substrate leading to enzyme irreversible inhibition”. Moreover, the “ki/KI or kobs/[I], HLE” value at HLE (ref Pochet et al (1996)) was 630^b M^−1 s^−1. Also, on HLE (ref Pochet et al, 1996, 2000), the “mode of inhibition of HLE” value is “transiently inactivated”.

In the case of `CC(=O)OCc1ccc2oc(=O)c(C(=O)Oc3ccccc3)cc2c1` [compound 5], in series [1], the inhibition at 1 µM was 30% and the inhibition at 10 µM is 50 to 60%.

As to `CC(=O)OCc1ccc2oc(=O)c(C(=O)Oc3cccc(F)c3)cc2c1` [compound 6], the melting point (as a rule, the temperature of the solid-liquid transition) lay in the range of 170 to 172 °C. Besides, the inhibition at 1 µM in series [1] turned out to be 80%.

In turn, `CC(=O)OCc1ccc2oc(=O)c(C(=O)Oc3cccc(I)c3)cc2c1` [compound 8] yielded a melting point of 169 to 170 °C. In addition, the “inhibition of HT1080 cell invasion (chemoinvasion)” value in series [1] is on record as “quite similar to that observed with the reference compound”.
